pIC50, pKi: −log10 of the molar value.
Tests used:
[1] = biological target: T1, Human adrenergic α1B receptor (Homo sapiens, UniProt P35368); test: Radioligand binding, adrenergic α1B (Protocol Group B); parameters: purchased Milipore (Millipore); conditions: for inhibition at 0.1 µM / Percentage inhibition of ligand binding, Adrenergic α1B (0.1 μM): 0.1 μM compound; for inhibition at 0.1 µM / inhibition at 0.3 µM / pKi / Percentage inhibition of ligand binding, Adrenergic α1B (0.1 μM) / Percentage inhibition of ligand binding, Adrenergic α1B (0.3 μM): Protocol Group B; for inhibition at 0.1 µM: read-out: Percentage inhibition of ligand binding, Adrenergic α1B (0.1 μM); for inhibition at 0.3 µM / Percentage inhibition of ligand binding, Adrenergic α1B (0.3 μM): 0.3 μM compound; for inhibition at 0.3 µM: read-out: Percentage inhibition of ligand binding, Adrenergic α1B (0.3 μM); for pKi: estimated Ki
T1 sequence (P35368 1-520): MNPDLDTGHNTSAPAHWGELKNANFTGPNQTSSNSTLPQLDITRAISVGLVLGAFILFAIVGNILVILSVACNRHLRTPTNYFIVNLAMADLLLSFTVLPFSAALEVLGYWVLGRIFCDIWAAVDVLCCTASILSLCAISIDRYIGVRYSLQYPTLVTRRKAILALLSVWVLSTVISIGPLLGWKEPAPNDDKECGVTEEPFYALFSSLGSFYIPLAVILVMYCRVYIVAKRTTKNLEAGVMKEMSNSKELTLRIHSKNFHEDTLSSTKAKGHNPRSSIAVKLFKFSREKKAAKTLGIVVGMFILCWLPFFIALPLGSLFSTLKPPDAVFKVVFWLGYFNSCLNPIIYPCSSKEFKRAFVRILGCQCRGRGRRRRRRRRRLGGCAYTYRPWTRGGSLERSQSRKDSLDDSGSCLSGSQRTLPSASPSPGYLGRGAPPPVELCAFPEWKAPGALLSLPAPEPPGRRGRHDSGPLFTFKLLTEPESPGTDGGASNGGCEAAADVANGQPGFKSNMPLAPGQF
In short: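 Values are percent inhibition of specific [3H]prazosin (0.3 nM) binding or estimated Ki, from filtration counting. Human α1B recombinant membranes, Tris-HCl pH 7.4 buffer with MgCl2 and EDTA, 60 min at 25 °C, 1% DMSO vehicle; 10 μM prazosin defined nonspecific binding.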

[2] = biological target: T2, Human adrenergic α2B receptor (Homo sapiens, UniProt P18089); test: β-Arrestin GPCR functional assay, adrenergic α2B (Protocol B); assay type: cell-based; conditions: for pIC50: β-arrestin, antagonist vs nor-epinephrine EC80, read-out: IC50 Adrenergic α2B
T2 sequence (P18089 1-450): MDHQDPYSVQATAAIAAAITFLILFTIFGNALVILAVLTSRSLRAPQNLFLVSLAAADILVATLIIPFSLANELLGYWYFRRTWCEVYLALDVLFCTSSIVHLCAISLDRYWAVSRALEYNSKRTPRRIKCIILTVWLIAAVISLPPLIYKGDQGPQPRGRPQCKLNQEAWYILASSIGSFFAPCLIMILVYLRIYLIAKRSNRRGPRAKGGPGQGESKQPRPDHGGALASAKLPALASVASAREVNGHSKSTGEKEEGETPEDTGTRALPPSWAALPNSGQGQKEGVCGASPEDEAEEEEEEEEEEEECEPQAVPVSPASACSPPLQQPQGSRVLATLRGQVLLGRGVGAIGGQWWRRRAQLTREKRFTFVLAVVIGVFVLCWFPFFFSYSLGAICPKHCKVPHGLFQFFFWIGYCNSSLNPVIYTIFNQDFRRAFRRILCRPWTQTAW
In short: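 CHO cells overexpressing human α2B (PathHunter β-arrestin), 12,000 per well, 24 h at 37° C; compounds in 1% DMSO 30 min, then 50 nM norepinephrine (EC80) 90 min at 37° C.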

[3] = biological target: T2, Human adrenergic α2B receptor; test: Radioligand binding, adrenergic α2B (Protocol Group B); parameters: purchased Milipore (Millipore); conditions: for inhibition at 0.01 µM / Percentage inhibition of ligand binding, Adrenergic α2B (10 nM): 10 nM compound; for inhibition at 0.01 µM: read-out: Percentage inhibition of ligand binding, Adrenergic α2B (10 nM); for inhibition at 0.03 µM / Percentage inhibition of ligand binding, Adrenergic α2B (30 nM): 30 nM compound; for inhibition at 0.03 µM: read-out: Percentage inhibition of ligand binding, Adrenergic α2B (30 nM); for pKi: estimated Ki, read-out: Ki α2B; for inhibition at 0.1 µM: read-out: Percentage inhibition of ligand binding, Adrenergic α2B (0.1 μM); for Percentage inhibition of ligand binding, Adrenergic α2B (10 nM): 0.01 µM; for Percentage inhibition of ligand binding, Adrenergic α2B (30 nM): 0.03 µM
In short: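 Compounds at various concentrations in 1% DMSO were tested on recombinant membranes in Tris-HCl pH 7.4 buffer containing MgCl2, CaCl2 and 0.2% BSA.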

[4] = biological target: T1, Human adrenergic α1B receptor; test: β-Arrestin GPCR functional assay, adrenergic α1B (Protocol B); assay type: cell-based; conditions: for pIC50: β-arrestin, antagonist vs nor-epinephrine EC80
Procedure: To evaluate the activity of compounds in β-Arrestin GPCR functional assays, recombinant CHO cell line (DiscoveRX), over expressed with human adrenergic α1B receptor were used. The experiment was done with a kit of DiscoveRX as per recommended protocol of the supplier. Cells were harvested from culture flask using cell dissociation solution (CDS) and plated at a density of 12,000 cells/well in CP reagent (supplied with the kit) in a half area 96-well white polystyrene plate. After 24 h incubation at 37° C., compounds at various concentrations in 1% (final) DMSO were charged to the cells for 30 min at 37° C. Active nor-epinephrine (-NE) at its EC80 concentrations (50 nM) were then added to the cells and incubated for another 90 min at 37° C. Detection mix was prepared by mixing Path Hunter cell assay buffer, Emerald II solution and Galactone star solution in a ratio of 19:5:1 and incubated with the cells for 60 min at RT in the dark. The reading was taken in Envision at luminescence mode. Biochemical assay results are presented as the percent Inhibition in Table B2a, or IC50 values in Table B2b.

[5] = 0.1 μM compound, Protocol Group B

Row | Compound | inhibition at 0.1 µM [1] | inhibition at 0.3 µM [1] | pKi [1] | pIC50 [2] | inhibition at 0.01 µM ([3]; Protocol Group B) | inhibition at 0.03 µM ([3]; Protocol Group B) | pKi ([3]; Protocol Group B) | pIC50 [4] | inhibition at 0.1 µM [3, 5] | Percentage inhibition of ligand binding, Adrenergic α2B (10 nM) ([3]; Protocol Group B) | Percentage inhibition of ligand binding, Adrenergic α1B (0.1 μM) [1] | Percentage inhibition of ligand binding, Adrenergic α2B (30 nM) ([3]; Protocol Group B) | other results
1 | Cc1cc(F)cc2c3c(n(CC(O)c4ccncc4)c12)CCN1CCCC31 (single isomer, unassigned) [136a] | 31% | 70% | 7.83 | 7.97 | 91% | 95% | 8.82 | – | – | – | – | – | –
2 | Cc1ccc2c(c1)c1c(n2CC(O)c2ccncc2)CC[N+]2([O-])CCCC12 (stereo not shown) [compound 23, 7-(2-hydroxy-2-(pyridin-4-yl)ethyl)-10-methyl-1,2,3,4,5,6,7,11c-octahydroindolizino[7,8-b]indole 4-oxide] | 53% | 65% | 7.25 | 6.42 | 65% | 88% | 8.65 | 5.92 | 92% | – | – | – | inhibition at 0.1 µM ([4]; 0.1 μM compound, nor-epinephrine at EC80 (50 nM), read-out: Percentage inhibition, Adrenergic α1B): 15%; inhibition at 0.3 µM ([4]; 0.3 μM compound, nor-epinephrine at EC80 (50 nM), read-out: Percentage inhibition, Adrenergic α1B): 15%; inhibition at 0.0032 µM ([1]; 3.2 nM compound, concentration series, read-out: Percentage inhibition of ligand binding, Adrenergic α1B, 3.2 nM): 21%; inhibition at 0.01 µM ([1]; 10 nM compound, concentration series, read-out: Percentage inhibition of ligand binding, Adrenergic α1B, 10 nM): 22%; inhibition at 0.03 µM ([1]; 0.03 μM compound, concentration series, read-out: Percentage inhibition of ligand binding, Adrenergic α1B, 0.03 μM): 32%; inhibition at 0.32 µM ([1]; 0.32 μM compound, concentration series, read-out: Percentage inhibition of ligand binding, Adrenergic α1B, 0.32 μM): 64%; inhibition at 1 µM ([1]; 1 μM compound, concentration series, read-out: Percentage inhibition of ligand binding, Adrenergic α1B, 1 μM): 72%; inhibition at 3.2 µM ([1]; 3.2 μM compound, concentration series, read-out: Percentage inhibition of ligand binding, Adrenergic α1B, 3.2 μM): 85%; inhibition at 10 µM ([1]; 10 μM compound, concentration series, read-out: Percentage inhibition of ligand binding, Adrenergic α1B, 10 μM): 93%; inhibition at 0.01 µM ([2]; 10 nM compound, nor-epinephrine at EC80 (50 nM), read-out: Percentage inhibition, Adrenergic α2B): 10%; inhibition at 0.03 µM ([2]; 30 nM compound, nor-epinephrine at EC80 (50 nM), read-out: Percentage inhibition, Adrenergic α2B): 12%; inhibition at 0.1 µM ([2]; 0.1 μM compound, nor-epinephrine at EC80 (50 nM), read-out: Percentage inhibition, Adrenergic α2B): 27%; inhibition at 0.0001 µM ([3]; 0.1 nM compound, concentration series, read-out: Percentage inhibition of ligand binding, Adrenergic α2B, 0.1 nM): 13%; inhibition at 0.00032 µM ([3]; 0.32 nM compound, concentration series, read-out: Percentage inhibition of ligand binding, Adrenergic α2B, 0.32 nM): 5%; inhibition at 0.001 µM ([3]; 1 nM compound, concentration series, read-out: Percentage inhibition of ligand binding, Adrenergic α2B, 1 nM): 2%; inhibition at 0.0032 µM ([3]; 3.2 nM compound, concentration series, read-out: Percentage inhibition of ligand binding, Adrenergic α2B, 3.2 nM): 40%; inhibition at 0.32 µM ([3]; 0.32 μM compound, concentration series, read-out: Percentage inhibition of ligand binding, Adrenergic α2B, 0.32 μM): 105%
3 | Cc1cc(F)c2c(c1)c1c(n2CC(O)c2ccncc2)CCN2CCCC12 (single isomer, unassigned) [137a] | 58% | 85% | 7.82 | 7.38 | – | 96% | 8.82 | 6.94 | – | 83% | – | – | –
4 | Cc1ccc2c(c1)c1c(n2CC(O)c2ccncc2)CCN2CCCC12 (single isomer, unassigned) [Compound No. 178d] | 94% | – | – | – | – | 97% | – | – | – | – | 99% | 104% | –
5 | CCOC(Cn1c2c(c3cc(C)ccc31)CN(C)CC2)c1ccncc1 (single isomer, unassigned) [43b] | – | – | 6.56 | 7.04 | – | – | 8.68 | 5.96 | – | 71% | 14% | 89% | Percentage inhibition of ligand binding, Adrenergic α1B (0.3 μM) [1]: 30%; Percentage inhibition of ligand binding, Adrenergic α2B (0.1 μM) ([3]; 0.1 μM compound, Protocol Group B, 0.1 µM): 98%
6 | Cc1cc(C)c2c(c1)c1c(n2CC(C)(O)c2cccnc2)CCN2CCCC12 (single isomer, unassigned) [44a] | – | 71% | 7.20 | 6.75 | – | 87% | 8.66 | 6.16 | 95% | 71% | 40% | – | –
7 | Cc1cc(F)c2c(c1)c1c(n2CC(C)(O)c2cccnc2)CCN2CCCC12 (single isomer, unassigned) [79b] | 28% | 57% | – | 7.47 | 86% | 95% | 8.81 | – | 97% | – | – | – | –
8 | Cc1ccc2c(c1)c1c(n2CC(OC(=O)N2CCCC2)c2ccncc2)CCN(C)C1 (single isomer, unassigned) [4b] | – | – | 6.57 | 6.79 | – | – | 8.44 | 6.18 | – | – | – | – | –
9 | Cc1ccc2c(c1)c1c(n2CC(C)(O)c2ccc(F)nc2)CCN2CCCC12 (single isomer, unassigned) [6a] | – | – | 7.60 | 7.62 | – | – | 8.85 | 6.92 | – | – | – | – | –
10 | Cc1cc(F)c2c(c1)c1c(n2CC(C)(O)c2cccnc2)CCN2CCCC12 (stereo not shown) [Compound No. 79a] | – | – | 7.37 | 7.92 | – | – | 9.11 | – | 97% | – | 47% | 96% | Percentage inhibition of ligand binding, Adrenergic α1B (0.3 μM) [1]: 79%
